Converted amounts (≈) assume the structure as drawn. Like-named read-outs stand apart in the source and are kept apart here. Where a SMILES comes first, the peptide text is derived from it. The star is where a group is joined. Lauroyl = CCCCCCCCCCCC(=O)*; Decanoyl = CCCCCCCCCC(=O)*
Experiments:
Format in all cases: cell-based
[1] = tested on: Pseudomonas aeruginosa (ATCC 9027); settings: ATCC 9027, 24 h
[2] = tested on: Bacillus subtilis (ATCC 6633); settings: for MIC Bacillus subtillis: ATCC 6633, 18 h; for MBC Bacillus subtillis: ATCC 6633, 24 h
Method: (§1) The minimum inhibitory concentration (MIC), minimum bactericidal concentration (MBC) and minimum fungicidal concentration (MFC) were determined according to the procedure recommended by the Clinical Laboratory Standards Institute (CLSI). The following reference strains were tested: Gram-negative E. coli (ATCC 25922), K. pneumoniae (ATCC 700603), P. vulgaris (PCM 2668), P. aeruginosa (ATCC 9027), Gram-positive S. aureus (ATCC 25923), S. epidermidis (PCM 2118), B. subtilis (ATCC 6633), E. faecalis (ATCC 29212) and fungi C. albicans (ATCC 10231), C. tropicalis (PCM 2681), and A. brasiliensis (ATCC 16404). All the microorganisms were from the Polish Collection of Microorganisms (Wroclaw, Poland). MIC was determined using a microbroth dilution method with Mueller-Hinton (MH) broth for bacteria and Sabouraud Dextrose broth for fungi (Becton Dickinson, Le Pont de Claix, France). An initial inoculum of 10^5 cfu/mL was used for bacteria and 10^3 cfu/mL for fungi. Polypropylene 96-well plates (Kartell, Noviglio, Italy) were incubated for 18 h at 37°C for bacteria and for 48 h at 25°C for the tested fungi. MIC (μg/mL) was taken as the lowest concentration of the lipopeptide, at which the observable growth was inhibited. […] The experiments were performed in triplicate on three different days.

[3] = tested on: Candida albicans (ATCC 10231); settings: ATCC 10231, 48 h
Method: as §1

[4] = tested on: Enterococcus faecalis (ATCC 29212)
Method: as §1

[5] = tested on: Candida tropicalis (PCM 2681); settings: PCM 2681, 48 h
Method: as §1

[6] = tested on: Aspergillus brasiliensis (ATCC 16404); settings: ATCC 16404, 48 h
Method: as §1

[7] = tested on: Escherichia coli (ATCC 25922)
Method: as §1

[8] = tested on: Staphylococcus aureus (ATCC 25923)
Method: as §1

[9] = tested on: Klebsiella pneumoniae (ATCC 700603)
Method: as §1

[10] = tested on: Staphylococcus epidermidis (PCM 2118); settings: for MIC Staphylococcus epidermidis: PCM 2118, 18 h; for MBC Staphylococcus epidermidis: PCM 2118, 24 h
Method: as §1

[11] = tested on: Proteus vulgaris (PCM 2668); settings: PCM 2668, TFA salt, triplicate; for MIC Proteus vulgaris: Mueller-Hinton broth, 10^5 cfu/mL, 18 h 37°C; for MBC Proteus vulgaris: subculture on Mueller-Hinton II Agar, 24 h 37°C
Method: as §1

[12] = tested on: Pseudomonas aeruginosa (ATCC 9027); settings: ATCC 9027, 18 h
Method: as §1

[13] = tested on: human red blood cells; settings: 1 h
Method: The hemolytic activity of the lipopeptides was determined by exposing human red blood cells (4% v/v) to tested compounds at graded concentrations. Red blood cells were obtained from a healthy donor. EDTA was used to prevent the blood clotting. The plasma was removed via centrifugation and the erythrocytes were washed three times with PBS. The red blood cells were suspended in PBS and incubated with different concentrations of lipopeptides at 37°C for 1 h and centrifuged for 5 min at 1000 × g. The supernatants were transferred to a sterile 96-well plate and hemoglobin release was measured with an Epoch microplate spectrophotometer (BioTek, USA) by recording the absorbance at 550 nm. A 0.1% Triton X-100 solution was used as the positive control (100% of hemolysis) and pure PBS as the negative (0% of hemolysis). Minimum hemolytic concentration (MHC) was taken as the lowest concentration which induced 10% of hemolysis.

[14] = ATCC 29212, TFA salt, subculture on Mueller-Hinton II Agar, 24 h 37°C, triplicate
[15] = ATCC 25922, TFA salt, Mueller-Hinton broth, 10^5 cfu/mL, 18 h 37°C, triplicate
[16] = ATCC 25922, TFA salt, subculture on Mueller-Hinton II Agar, 24 h 37°C, triplicate
[17] = ATCC 25923, TFA salt, MIC wells subcultured on Mueller-Hinton II Agar, 24 h 37°C, triplicate
[18] = ATCC 25923, TFA salt, Mueller-Hinton broth, 10^5 cfu/mL, 18 h 37°C, triplicate on three days

Row | Structure (SMILES) | MIC Bacillus subtillis [2] [µg/mL] | MIC Candida albicans [3] [µg/mL] | MIC Enterococcus fecalis ([4]; ATCC 29212, 18 h) [µg/mL] | MIC Candida tropicalis [5] [µg/mL] | MIC Aspergillus brasiliensis [6] [µg/mL] | MIC Klebsiella pneumoniae ([9]; ATCC 700603, 18 h) [µg/mL] | MIC Staphylococcus epidermidis [10] [µg/mL] | MIC Proteus vulgaris [11] [µg/mL] | MIC Pseudomonas aeruginosa [12] [µg/mL] | MBC Pseudomonas aeruginosa [1] [µg/mL] | MBC Bacillus subtillis [2] [µg/mL] | MFC Candida albicans [3] [µg/mL] | MFC Candida tropicalis [5] [µg/mL] | MFC Aspergillus brasiliensis [6] [µg/mL] | MBC Klebsiella pneumoniae ([9]; ATCC 700603, 24 h) [µg/mL] | MBC Staphylococcus epidermidis [10] [µg/mL] | MBC Proteus vulgaris [11] [µg/mL] | Hemolysis HC10 (MHC), concentration of lipopeptide inducing 10% of hemolysis [13] [µg/mL] | MBC Escherichia coli ([7]; ATCC 25922, 24 h) [µg/mL] | MBC Staphylococcus aureus ([8]; ATCC 25923, 24 h) [µg/mL] | also measured
1 | CCCCCCCCCC(=O)N[C@@H](CCCCN)C(=O)NCC(=O)N[C@@H](CCCCN)C(=O)NCC(N)=O [C10-KGKG-NH2] (Decanoyl-KGKG-NH2) | 512 (≈ 945 µM) | 1000 (≈ 1850 µM) | 2000 (≈ 3690 µM) | 512 (≈ 945 µM) | 1000 (≈ 1850 µM) | 2000 (≈ 3690 µM) | 512 (≈ 945 µM) | >2000 | 1000 (≈ 1850 µM) | 2000 (≈ 3690 µM) | 1000 (≈ 1850 µM) | 2000 (≈ 3690 µM) | 2000 (≈ 3690 µM) | 2000 (≈ 3690 µM) | 2000 (≈ 3690 µM) | 512 (≈ 945 µM) | >2000 |  |  |  | MBC Enterococcus fecalis [4, 14]: >2000 µg/mL; MIC Escherichia coli [7, 15]: >2000 µg/mL; MBC Escherichia coli [7, 16]: >2000 µg/mL; MBC Staphylococcus aureus [8, 17]: >2000 µg/mL; MIC Staphylococcus aureus [8, 18]: >2000 µg/mL
2 | CCCCCCCCCC(=O)N[C@@H](CCCCN)C(=O)N[C@@H](CCCCN)C(N)=O [C10-KK-NH2] | 256 (≈ 599 µM) | 2000 (≈ 4680 µM) |  | 1000 (≈ 2340 µM) | 1000 (≈ 2340 µM) |  | 256 (≈ 599 µM) | >2000 | 2000 (≈ 4680 µM) | 2000 (≈ 4680 µM) | 512 (≈ 1200 µM) | 2000 (≈ 4680 µM) | 1000 (≈ 2340 µM) | 1000 (≈ 2340 µM) |  | 512 (≈ 1200 µM) | >2000 | 4000 |  |  | MIC Enterococcus fecalis ([4]; ATCC 29212, TFA salt, Mueller-Hinton broth, 10^5 cfu/mL, 18 h 37°C, triplicate): >2000 µg/mL; MBC Enterococcus fecalis [4, 14]: >2000 µg/mL; MIC Escherichia coli [7, 15]: >2000 µg/mL; MBC Escherichia coli [7, 16]: >2000 µg/mL; MBC Staphylococcus aureus [8, 17]: >2000 µg/mL; MIC Staphylococcus aureus [8, 18]: >2000 µg/mL; MIC Klebsiella pneumoniae ([9]; ATCC 700603, TFA salt, Mueller-Hinton broth, 10^5 cfu/mL, 18 h 37°C, triplicate): >2000 µg/mL; MBC Klebsiella pneumoniae ([9]; ATCC 700603, TFA salt, subculture on Mueller-Hinton II Agar, 24 h 37°C, triplicate): >2000 µg/mL
3 | CCCCCCCCCCCC(=O)N[C@@H](CCCCN)C(=O)NCC(=O)N[C@@H](CCCCN)C(N)=O [C12-KGK-NH2] (Lauroyl-Lys-Gly-Lys-NH2) | 512 (≈ 999 µM) | 2000 (≈ 3900 µM) |  | 2000 (≈ 3900 µM) | 1000 (≈ 1950 µM) |  | 64 (≈ 125 µM) | >2000 | 1000 (≈ 1950 µM) | 1000 (≈ 1950 µM) | 1000 (≈ 1950 µM) | 2000 (≈ 3900 µM) | 2000 (≈ 3900 µM) | 2000 (≈ 3900 µM) | 1000 (≈ 1950 µM) | 128 (≈ 250 µM) |  | 1000 | 1000 (≈ 1950 µM) | 1000 (≈ 1950 µM) | 

The next lines start with results.

Row | MIC Bacillus subtillis [2] [µg/mL] | MIC Candida albicans [3] [µg/mL] | MIC Enterococcus fecalis ([4]; ATCC 29212, 18 h) [µg/mL] | MIC Candida tropicalis [5] [µg/mL] | MIC Aspergillus brasiliensis [6] [µg/mL] | MIC Klebsiella pneumoniae ([9]; ATCC 700603, 18 h) [µg/mL] | MIC Staphylococcus epidermidis [10] [µg/mL] | MIC Proteus vulgaris [11] [µg/mL] | MIC Pseudomonas aeruginosa [12] [µg/mL] | Structure (SMILES) | MBC Pseudomonas aeruginosa [1] [µg/mL] | MBC Bacillus subtillis [2] [µg/mL] | MFC Candida albicans [3] [µg/mL] | MFC Candida tropicalis [5] [µg/mL] | MFC Aspergillus brasiliensis [6] [µg/mL] | MBC Klebsiella pneumoniae ([9]; ATCC 700603, 24 h) [µg/mL] | MBC Staphylococcus epidermidis [10] [µg/mL] | MBC Proteus vulgaris [11] [µg/mL] | Hemolysis HC10 (MHC), concentration of lipopeptide inducing 10% of hemolysis [13] [µg/mL] | MBC Escherichia coli ([7]; ATCC 25922, 24 h) [µg/mL] | MBC Staphylococcus aureus ([8]; ATCC 25923, 24 h) [µg/mL] | also measured
4 | 64 (≈ 140 µM) | 1000 (≈ 2190 µM) | 512 (≈ 1120 µM) | 1000 (≈ 2190 µM) | 2000 (≈ 4390 µM) | 2000 (≈ 4390 µM) | 64 (≈ 140 µM) | >2000 | 2000 (≈ 4390 µM) | CCCCCCCCCCCC(=O)N[C@@H](CCCCN)C(=O)N[C@@H](CCCCN)C(N)=O [C12-KK-NH2] | 2000 (≈ 4390 µM) | 128 (≈ 281 µM) | 2000 (≈ 4390 µM) | 2000 (≈ 4390 µM) | 2000 (≈ 4390 µM) | 2000 (≈ 4390 µM) | 64 (≈ 140 µM) | >2000 |  | 2000 (≈ 4390 µM) | 2000 (≈ 4390 µM) | MBC Enterococcus fecalis ([4]; ATCC 29212, 24 h): 512 µg/mL (≈ 1120 µM); MIC Escherichia coli ([7]; ATCC 25922, 18 h): 2000 µg/mL (≈ 4390 µM); MIC Staphylococcus aureus ([8]; ATCC 25923, 18 h): 2000 µg/mL (≈ 4390 µM)
5 | 64 (≈ 110 µM) | 1000 (≈ 1710 µM) | 512 (≈ 877 µM) | 1000 (≈ 1710 µM) | 512 (≈ 877 µM) | 1000 (≈ 1710 µM) | 64 (≈ 110 µM) | >2000 | 512 (≈ 877 µM) | CCCCCCCCCCCC(=O)N[C@@H](CCCCN)C(=O)N[C@@H](CCCCN)C(=O)N[C@@H](CCCCN)C(N)=O [C12-KKK-NH2] |  | 128 (≈ 219 µM) | 1000 (≈ 1710 µM) | 1000 (≈ 1710 µM) | 512 (≈ 877 µM) | 1000 (≈ 1710 µM) | 64 (≈ 110 µM) |  | 512 | 1000 (≈ 1710 µM) | 1000 (≈ 1710 µM) | MBC Enterococcus fecalis ([4]; ATCC 29212, 24 h): 512 µg/mL (≈ 877 µM); MIC Staphylococcus aureus ([8]; ATCC 25923, 18 h): 1000 µg/mL (≈ 1710 µM)
6 | 128 (≈ 180 µM) | 256 (≈ 360 µM) | 512 (≈ 719 µM) | 256 (≈ 360 µM) | 128 (≈ 180 µM) |  | 64 (≈ 89.9 µM) | >2000 |  | CCCCCCCCCCCC(=O)N[C@@H](CCCCN)C(=O)N[C@@H](CCCCN)C(=O)N[C@@H](CCCCN)C(=O)N[C@@H](CCCCN)C(N)=O [C12-KKKK-NH2] (Lauroyl-KKKK-NH2) |  | 256 (≈ 360 µM) | 256 (≈ 360 µM) | 512 (≈ 719 µM) | 256 (≈ 360 µM) | 1000 (≈ 1400 µM) | 64 (≈ 89.9 µM) |  | 1000 | 256 (≈ 360 µM) | 1000 (≈ 1400 µM) | MBC Enterococcus fecalis ([4]; ATCC 29212, 24 h): 512 µg/mL (≈ 719 µM); MIC Escherichia coli ([7]; ATCC 25922, 18 h): 256 µg/mL (≈ 360 µM); MIC Staphylococcus aureus ([8]; ATCC 25923, 18 h): 1000 µg/mL (≈ 1400 µM)

Source: PMC5285354, “Cationic Net Charge and Counter Ion Type as Antimicrobial Activity Determinant Factors of Short Lipopeptides” (Frontiers in Microbiology, 2017)
